We go through 16 compounds from patent publication US9115137B2, “2,3,4,5-tetrahydro-1H-pyrido[4,3-B]indole compounds and methods of use thereof” (priority 2008, dated 2015).

Molecules are shown by their SMILES.

Assay [1] deals with T1, human recombinant adrenergic α2A receptor (Homo sapiens, UniProt P08913).
T1 construct: expressed in transfected cells; host or cells: insect Sf9 cells
T1 sequence (P08913 1-465): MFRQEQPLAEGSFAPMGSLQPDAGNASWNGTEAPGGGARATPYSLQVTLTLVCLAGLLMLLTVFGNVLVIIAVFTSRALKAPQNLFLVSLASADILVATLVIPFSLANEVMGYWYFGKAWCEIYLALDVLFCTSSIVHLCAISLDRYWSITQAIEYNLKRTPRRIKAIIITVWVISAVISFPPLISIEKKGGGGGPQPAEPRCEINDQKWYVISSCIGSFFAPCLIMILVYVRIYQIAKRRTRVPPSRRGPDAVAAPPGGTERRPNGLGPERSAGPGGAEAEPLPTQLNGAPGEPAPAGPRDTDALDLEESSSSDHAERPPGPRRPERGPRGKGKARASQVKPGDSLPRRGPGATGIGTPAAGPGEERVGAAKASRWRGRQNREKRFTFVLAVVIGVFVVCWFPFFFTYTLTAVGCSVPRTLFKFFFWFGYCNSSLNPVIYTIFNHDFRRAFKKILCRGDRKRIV
The experiment in a line: Adrenergic α2A radioligand binding ([3H]MK-912). As to conditions: compound at 1 μM; insect Sf9 cells; read-out: Adrenergic (1 μM) α2A, percent inhibition of specific binding. As for the experimental part: To evaluate in radioligand binding assays the activity of compounds of the invention, human recombinant adrenergic α2A receptor expressed in insect Sf9 cells (Uhlen S et al. J Pharmacol Exp Ther. 271:1558, 1994) in a modified Tris-HCl buffer (50 mM Tris-HCl, pH 7.4, 12.5 mM MgCl2, 2 mM EDTA) was used. Compounds of invention were incubated with 1 nM [^3H]MK-912 for 60 minutes at 25° C. MK912 is (2S-trans)-1,3,4,5′,6,6′,7,12b-octahydro-1′,3′-dimethyl-spiro[2H-benzofuro[2,3-a]quinolizine-2,4′(1′H)-pyrimidin]-2′(3′H)-one hydrochloride Non-specific binding was estimated in the presence of 10 μM WB-4101 (2-(2,6-Dimethoxyphenoxyethyl)aminomethyl-1,4-benzodioxane hydrochloride). Receptor proteins were filtered and washed, the filters were then counted to determine [^3H]MK-912 specifically bound. Compounds were screened at 1 μM or lower, using 1% DMSO as vehicle. Biochemical assay results are presented as the percent inhibition of specific binding in Table 6.

Assay [2] addresses T2, human recombinant adrenergic α2B receptor (Homo sapiens, UniProt P18089).
T2 construct: expressed in transfected cells; host or cells: CHO-K1 cells
T2 sequence (P18089 1-450): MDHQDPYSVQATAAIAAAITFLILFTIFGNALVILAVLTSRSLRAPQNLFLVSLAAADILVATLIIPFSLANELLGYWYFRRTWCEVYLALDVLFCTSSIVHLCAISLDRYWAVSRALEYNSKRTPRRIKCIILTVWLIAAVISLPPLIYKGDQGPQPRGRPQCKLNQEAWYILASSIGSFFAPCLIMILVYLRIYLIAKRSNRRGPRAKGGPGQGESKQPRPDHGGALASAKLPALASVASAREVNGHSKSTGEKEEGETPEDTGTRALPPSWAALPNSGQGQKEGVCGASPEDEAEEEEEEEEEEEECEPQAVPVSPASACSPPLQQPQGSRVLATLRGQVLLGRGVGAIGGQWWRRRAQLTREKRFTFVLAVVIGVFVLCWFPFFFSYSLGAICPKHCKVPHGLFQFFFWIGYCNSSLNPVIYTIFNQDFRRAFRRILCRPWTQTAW
Description: Adrenergic α2B radioligand binding ([3H]Rauwolscine). As to conditions: compound at 1 μM; CHO-K1 cells; read-out: Adrenergic (1 μM) α2B, percent inhibition of specific binding. The method, then: To evaluate in radioligand binding assays the activity of compounds of the invention, human recombinant adrenergic α2B receptor expressed in Chinese hamster ovary (CHO-K1) cells (Uhlen S et al. Eur. J. Pharmacol. 343(1):93, 1998) in a modified Tris-HCl buffer (50 mM Tris-HCl, pH 7.4, 12.5 mM MgCl2, 1 mM EDTA, 0.2% BSA) was used. Compounds of the invention were incubated with 2.5 nM [3H]Rauwolscine for 60 minutes at 25° C. Non-specific binding was estimated in the presence of 10 μM Prozosin. Receptor proteins were filtered and washed, the filters were then counted to determine [^3H]Rauwolscine specifically bound. Compounds were screened at 1 μM or lower, using 1% DMSO as vehicle. Biochemical assay results are presented as the percent inhibition of specific binding in Table 6.

Assay [3] addresses T3, human recombinant dopamine D2L receptor (Homo sapiens, UniProt P14416).
T3 construct: expressed in transfected cells; host or cells: CHO cells
The experiment in a line: Dopamine D2L radioligand binding ([3H]Spiperone). As to conditions: compound at 1 μM; CHO cells; read-out: Dopamine (1 μM) D2L, percent inhibition of specific binding. As for the experimental part: To evaluate in radioligand binding assays the activity of compounds of the invention, human recombinant dopamine D2L receptor expressed in Chinese hamster ovary (CHO) cells (Grandy, D. K. et al. Proc. Natl. Acad. Sci. USA. 86:9762, 1989; Hayes, G. et al., Mol. Endocrinol. 6:920, 1992) in a modified Tris-HCl buffer (50 mM Tris-HCl, pH 7.4, 1.4 mM Ascorbic Acid, 0.001% BSA, 150 mM NaCl) was used. Compounds of the invention were incubated with 0.16 nM [^3H]Spiperone for 120 minutes at 25° C. Non-specific binding was estimated in the presence of 10 μM Haloperidol. Receptor proteins were filtered and washed, the filters were then counted to determine [^3H]Spiperone specifically bound. Compounds were screened at 1 μM or lower, using 1% DMSO as vehicle. Biochemical assay results are presented as the percent inhibition of specific binding in Table 6.

For assay [4], the target named is T4, human recombinant serotonin (5-Hydroxytryptamine) 5-HT6 receptor (Homo sapiens, UniProt P50406).
T4 construct: expressed in transfected cells; host or cells: human HeLa cells
The experiment in a line: Serotonin 5-HT6 radioligand binding ([3H]LSD). The note with it: compound at 1 μM; HeLa cells; read-out: Serotonin (1 μM) 5-HT6, percent inhibition of specific binding. The method, then: To evaluate in radioligand binding assays the activity of compounds of the invention, human recombinant serotonin (5-Hydroxytryptamine) 5-HT6 receptor expressed in human HeLa cells (Monsma, F. J. Jr. et al., Mol. Pharmacol. 43:320, 1993) in a modified Tris-HCl buffer (50 mM Tris-HCl, pH 7.4, 150 mM NaCl, 2 mM Ascorbic Acid, 0.001% BSA) was used. Compounds of the invention were incubated with 1.5 nM [3H]Lysergic acid diethylamide (LSD) for 120 minutes at 37° C. Non-specific binding was estimated in the presence of 5 μM Serotonin (5-HT). Receptor proteins were filtered and washed, the filters were then counted to determine [3H]LSD specifically bound. Compounds were screened at 1 μM or lower, using 1% DMSO as vehicle. Biochemical assay results are presented as the percent inhibition of specific binding in Table 7.

T3 sequence (P14416 whole entry): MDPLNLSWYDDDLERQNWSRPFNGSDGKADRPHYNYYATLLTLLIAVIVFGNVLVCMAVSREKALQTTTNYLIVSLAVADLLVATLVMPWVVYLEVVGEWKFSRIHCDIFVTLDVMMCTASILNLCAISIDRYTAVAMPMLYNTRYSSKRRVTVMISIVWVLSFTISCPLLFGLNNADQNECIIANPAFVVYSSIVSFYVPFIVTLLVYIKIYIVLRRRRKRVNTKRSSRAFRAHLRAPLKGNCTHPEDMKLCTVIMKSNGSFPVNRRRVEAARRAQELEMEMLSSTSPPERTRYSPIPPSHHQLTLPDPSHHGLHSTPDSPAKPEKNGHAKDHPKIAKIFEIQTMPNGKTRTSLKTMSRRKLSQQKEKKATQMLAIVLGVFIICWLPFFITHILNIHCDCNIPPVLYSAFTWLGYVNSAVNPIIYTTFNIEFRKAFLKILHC
T4 sequence (P50406 whole entry): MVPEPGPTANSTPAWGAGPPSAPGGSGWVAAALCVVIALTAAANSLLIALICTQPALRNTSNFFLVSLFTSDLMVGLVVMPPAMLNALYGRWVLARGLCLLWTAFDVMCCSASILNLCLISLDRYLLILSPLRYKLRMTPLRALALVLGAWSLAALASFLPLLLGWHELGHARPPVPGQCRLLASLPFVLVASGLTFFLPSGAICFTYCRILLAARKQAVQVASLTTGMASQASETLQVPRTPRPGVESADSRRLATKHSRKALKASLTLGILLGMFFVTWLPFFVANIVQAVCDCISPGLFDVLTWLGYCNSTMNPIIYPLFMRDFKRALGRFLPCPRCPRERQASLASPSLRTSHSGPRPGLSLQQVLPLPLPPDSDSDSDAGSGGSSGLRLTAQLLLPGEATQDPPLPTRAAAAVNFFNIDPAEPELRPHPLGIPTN

On to `Cc1ccc2c(c1)c1c(n2CCC#N)CCN(C)C1` [CD92, 3-(2,8-dimethyl-3,4-dihydro-1H-pyrido[4,3-b]indol-5(2H)-yl)propanenitrile], for which the inhibition at 1 µM is 76% in assay [1], 94% in assay [2], 3% in assay [3] and 47% in assay [4].
Consider `CCOC(=O)CCn1c2c(c3cc(Cl)ccc31)CN(C)CC2` [CD17, ethyl 3-(8-chloro-1,2,3,4-tetrahydro-2-methylpyrido[4,3-b]indol-5-yl)propanoate], for which the inhibition at 1 µM was determined as 87% in assay [1], 99% in assay [2], 22% in assay [3] and 101% in assay [4].
For `Cc1ccc2c(c1)c1c(n2CCC(N)=O)CCN(C)C1` [Compound 46, 3-(1,2,3,4-tetrahydro-2,8-dimethylpyrido[4,3-b]indol-5-yl)propanamide], the inhibition at 1 µM in assay [1] is 44%; in assay [2] it was 46%; in assay [3], 4%; in assay [4] it was 11%.
As to `Cc1ccc2c(c1)c1c(n2CCN)CCN(C)C1` [CD62, 2-(1,2,3,4-tetrahydro-2,8-dimethylpyrido[4,3-b]indol-5-yl)ethanamine], the inhibition at 1 µM came to 42% in assay [1], 32% in assay [2], 26% in assay [3] and 12% in assay [4].
For `CC(C)OC(=O)CCn1c2c(c3cc(Cl)ccc31)CN(C)CC2` [Compound 17, isopropyl 3-(8-chloro-1,2,3,4-tetrahydro-2-methylpyrido[4,3-b]indol-5-yl)propanoate], in that order: 90%, 106%, 13% and 99%.
For `Cc1ccc2c(c1)c1c(n2CCC(=O)NC(C)C)CCN(C)C1` [Compound 53], in that order: 54%, 86%, -2% and 22%.
On to `Cc1ccc2c(c1)c1c(n2CCNC(=O)OCC(Cl)(Cl)Cl)CCN(C)C1` [Compound 8, 2,2,2-trichloroethyl 2-(1,2,3,4-tetrahydro-2,8-dimethylpyrido[4,3-b]indol-5-yl)ethylcarbamate], for which the inhibition at 1 µM in assay [1] amounted to 90%; in assay [2] it was 102%; in assay [4] it was 83%.
Turning to `CCNC(=O)CCn1c2c(c3cc(C)ccc31)CN(C)CC2` [Compound 2, N-ethyl-3-(1,2,3,4-tetrahydro-2,8-dimethylpyrido[4,3-b]indol-5-yl)propanamide], the inhibition at 1 µM in assay [1] is 35%; in assay [2], 55%; in assay [4], 19%.
The matching figures for `C#CCn1c2c(c3cc(C)ccc31)CN(C)CC2` [CD73, 2,8-dimethyl-5-(prop-2-ynyl)-2,3,4,5-tetrahydro-1H-pyrido[4,3-b]indole]: 70%, 101% and 83%.
For `CCNC(=O)CCCn1c2c(c3cc(C)ccc31)CN(C)CC2` [Compound 6, N-ethyl-4-(1,2,3,4-tetrahydro-2,8-dimethylpyrido[4,3-b]indol-5-yl)butanamide], in that order: 59%, 36% and 23%.
Regarding `Cc1ccc2c(c1)c1c(n2CCC(=O)NC2CCCCC2)CCN(C)C1` [Compound 3, N-cyclohexyl-3-(1,2,3,4-tetrahydro-2,8-dimethylpyrido[4,3-b]indol-5-yl)propanamide], the inhibition at 1 µM was 14% in assay [1], 80% in assay [2] and 19% in assay [4].
Take `Cc1ccc2c(c1)c1c(n2CCC(=O)NC2CCCC2)CCN(C)C1` [Compound 4, N-cyclopentyl-3-(1,2,3,4-tetrahydro-2,8-dimethylpyrido[4,3-b]indol-5-yl)propanamide]: the results for the inhibition at 1 µM in assay [1], in assay [2] and in assay [4] were 45%, 93% and 28%, respectively.
For `CCOC(=O)CCCn1c2c(c3cc(C)ccc31)CN(C)CC2` [Compound 5, ethyl 4-(1,2,3,4-tetrahydro-2,8-dimethylpyrido[4,3-b]indol-5-yl)butanoate], in that order: 74%, 98% and 88%.
Take `Cc1ccc2c(c1)c1c(n2CC#N)CCN(C)C1` [CD61, 2-(1,2,3,4-tetrahydro-2,8-dimethylpyrido[4,3-b]indol-5-yl)acetonitrile]: the inhibition at 1 µM in assay [1] amounted to 73%; in assay [2], 89%; in assay [4], 68%.
Take `CCOC(=O)CCn1c2c(c3cc(C)ccc31)CN(C)CC2` [CD1, ethyl 3-(1,2,3,4-tetrahydro-2,8-dimethylpyrido[4,3-b]indol-5-yl)propanoate]: the results for the inhibition at 1 µM in assay [1], in assay [2] and in assay [4] were 62%, 95% and 78%, respectively.
For `CNC(=O)CCn1c2c(c3cc(C)ccc31)CN(C)CC2` [Compound 1, 3-(1,2,3,4-tetrahydro-2,8-dimethylpyrido[4,3-b]indol-5-yl)-N-methylpropanamide], in that order: 18%, 51% and 8%.
